Test results reported in patent US20070128124A1 (published 2007).
Like-named read-outs stand apart in the source and are kept apart here.

Key:
[1] = tested on: tuberculosis bacilli in the lungs; assay: Chronic murine infection model, efficacy versus duration of infection; type: in vivo, mouse
[2] = tested on: MTB strain H37Rv; type: cell-based, Mycobacterium tuberculosis
[3] = tested on: MTB strain H37Rv; type: cell-based, Mycobacterium tuberculosis; remark: listed apart in the source
[4] = tested on: MTB strain H37Rv; type: cell-based, Mycobacterium tuberculosis; remark: listed apart in the source
[5] = tested on: MTB; settings: against MTB; cited from earlier work
[6] = tested on: MTB strain H37Rv; set-up: species or system C57/BL6 mice; settings: mouse, in vivo
[7] = cited from earlier work
[8] = cited from earlier work; remark: listed apart in the source
[9] = renal and ototoxicity, parenteral use; cited from earlier work
[10] = 10 times MIC, after 18-24 hours of incubation, stationary phase

Compound | reduction of bacillary load in the lungs ([1]; 13 weeks post infection) [logs] | reduction of lung CFU ([1]; two weeks post infection) [logs] | decrease in RLU from untreated cultures at peak efficacy [2] [log] | time of peak efficacy (RLU endpoint) [2] [h] | reduction of CFUs [3] | time at which an effect begins [4] [h] | RLU reduction, stationary phase [4, 10] | RLU reduction, log phase growth [2] | RLU reduction, stationary phase [4] [logs] | minimum inhibitory concentration (MIC) [5] [µg/mL] | efficacy compared with isoniazid and rifampicin [2] | reduction in lung CFU, aerosol treated group [6] [logs] | reduction in lung CFU, subcutaneous administered group ([6]; sc) [log] | solubility in water [7] | reduction in efficacy from log phase cultures ([4]; stationary versus log phase, RLU at 24 hrs) [%] | maximum serum concentration (Cmax) ([8]; human, reached two hours after intramuscular injection) [ng/mL] | oral absorption ([8]; oral) | patients in whom toxicities occur [9]
NNC(=O)c1ccncc1 [isoniazid] | 0.5 | 2 | ~1.5 | 72 | no effect | 48 | no significant effect | – | – | – | – | – | – | – | – | – | – | –
CO[C@H]1/C=C/O[C@@]2(C)Oc3c(C)c(O)c4c(O)c(c(/C=N/N5CCN(C)CC5)c(O)c4c3C2=O)NC(=O)/C(C)=C\C=C\[C@H](C)[C@H](O)[C@@H](C)[C@@H](O)[C@@H](C)[C@H](OC(C)=O)[C@@H]1C [rifampicin] | – | – | 3.5 | – | 0.5 logs | – | – | 2.25 logs | 0.3 | – | – | – | – | – | – | – | – | –
Capreomycin | – | – | 3.5 | – | 2.5 logs | – | approximately 2 logs | approximately 2 logs | – | 2.5 | superior to that of isoniazid and is as efficacious as rifampicin | ~2.5 | 1 | soluble in water | ~15 | 25000 | quite poor | up to 10 % of patients
